Experimental data reported in patent US8828696B2, “Use of Penicillin G Procaine as a selective antimicrobial agent in the production of alcohol by fermentation” (Lallemand Specialites, Inc, priority 2008, dated 2014).

Assays:
Lactobacillus fermentum = test: Bacterial inhibition test; assay type: cell-based; parameters: key: successful test corresponding to no growth is represented as (=); barely discernable growth is represented as (±); easily noticeable bacterial growth is represented as (+)
From the text: (§1) To directly measure the efficacy of Penicillin G Procaine and Penicillin G Potassium a bacterial inhibition test was designed using industrial isolates and chosen ATCC strains. The inhibition testing was spread over 0.1 ppm to 5.0 ppm for the Lactobacillus fermentum and 1.0 ppm to 5.0 ppm for Lactobacillus brevis species of bacteria due to the lack of response of Lactobacillus brevis at lower concentrations. […] The strains used were two isolates of Lactobacillus fermentum and 2 isolates of Lactobacillus brevis. The Lactobacillus fermentum series contained both an industry derived isolate Ind 1 and an ATCC strain while the Lactobacillus brevis series comprised of two isolates, Ind 1 and Ind 43 derived from the ethanol plants. The inhibition test plates were set in triplicate and read at 12 hour intervals up to 48 hours of test endpoint. The results below represent the mode average of the outcome from the triplicate inhibitory test sets for each trial. Table 11 lists the Lactobacillus fermentum and the Lactobacillus brevis results of the inhibition testing as follows: successful test corresponding to no growth is represented as (=), barely discernable growth is represented as (±) and easily noticeable bacterial growth is represented as (+). The set of control tests depict (=) control as just broth and (+) control as just broth with bacteria but without any antibiotic.
(§2) The trial was set up as follows:
(§3) • 1. Weigh out 0.1 g of each sample to be tested into a 15 ml centrifuge tube. • 2. Dissolve sample into 10 ml sterile water. […] Add antibiotic to clean tube, add 2 ml water. • b. Vortex, if antibiotic goes into solution add water for final volume of 10 ml. • c. […] Vortex until all material is in solution. • 3. Vortex the solutions to make sure that they are well mixed. • 4. Filter the solutions through a 0.2 μm syringe filter into a second labeled sterile centrifuge tube. • 5. Add antibiotic solution to MRS Broth for a final volume of 10 ml at the test concentration for each antibiotic. • 6. Mix organism solutions and add 2 μl to each of 3 wells of a 24 well plate. If tubes are used add the 2 μl to each of three tubes for each antibiotic. • 7. Transfer 1 ml of the antibiotic-broth solution to each well containing bacteria. • 8. Recap remaining antibiotic solution and return the tube to the tube rack. This tube will become the negative control for each dilution created. • 9. Add four μl of each bacterial culture to another set of wells and add […] of broth without antibiotics. These wells will be the positive controls. • 10. Incubate plates and tubes at 33 C for 48 hours, examining all samples at 24 hours for growth. Any turbidity detected should be a result of bacterial growth.

Lactobacillus brevis = test: Bacterial inhibition test; assay type: cell-based; parameters: key to bacterial growth in inhibition test: successful test corresponding to no growth is represented as (=); barely discernable growth is represented as (±); easily noticeable bacterial growth is represented as (+)
From the text: as §1, §2, §3

With `CC1(C)S[C@@H]2[C@H](NC(=O)Cc3ccccc3)C(=O)N2[C@H]1C(=O)[O-].[K+]` [Penicillin G Potassium] the “bacterial growth in inhibition test” value (Lactobacillus fermentum; ATCC L. fermentum, 0.1 ppm, Inc Time 12) was “=”, the “bacterial growth in inhibition test” value (Lactobacillus fermentum; ATCC L. fermentum, 0.1 ppm, Inc Time 24) was “=” and the “bacterial growth in inhibition test” value (Lactobacillus fermentum; ATCC L. fermentum, 0.1 ppm, Inc Time 36) was “±”. For the same molecule, the “bacterial growth in inhibition test” value (Lactobacillus fermentum; ATCC L. fermentum, 0.1 ppm, Inc Time 48) was “±”, the “bacterial growth in inhibition test” value (Lactobacillus fermentum; ATCC L. fermentum, 0.3 ppm, Inc Time 12) was “=” and the “bacterial growth in inhibition test” value (Lactobacillus fermentum; ATCC L. fermentum, 0.3 ppm, Inc Time 24) was “=”. For the same molecule, the “bacterial growth in inhibition test” value (Lactobacillus fermentum; ATCC L. fermentum, 0.3 ppm, Inc Time 36) was “=”, the “bacterial growth in inhibition test” value (Lactobacillus fermentum; ATCC L. fermentum, 0.3 ppm, Inc Time 48) was “=” and the “bacterial growth in inhibition test” value (Lactobacillus fermentum; ATCC L. fermentum, 0.5 ppm, Inc Time 12) was “=”. The “bacterial growth in inhibition test” value (Lactobacillus fermentum; ATCC L. fermentum, 0.5 ppm, Inc Time 24) was “=”, the “bacterial growth in inhibition test” value (Lactobacillus fermentum; ATCC L. fermentum, 0.5 ppm, Inc Time 36) was “=” and the “bacterial growth in inhibition test” value (Lactobacillus fermentum; ATCC L. fermentum, 0.5 ppm, Inc Time 48) was “=”. The “bacterial growth in inhibition test” value (Lactobacillus fermentum; ATCC L. fermentum, 1 ppm, Inc Time 12) was “=”, the “bacterial growth in inhibition test” value (Lactobacillus fermentum; ATCC L. fermentum, 1 ppm, Inc Time 24) was “=” and the “bacterial growth in inhibition test” value (Lactobacillus fermentum; ATCC L. fermentum, 1 ppm, Inc Time 36) was “=”. For the same molecule, the “bacterial growth in inhibition test” value (Lactobacillus fermentum; ATCC L. fermentum, 1 ppm, Inc Time 48) was “=”, the “bacterial growth in inhibition test” value (Lactobacillus fermentum; ATCC L. fermentum, 5 ppm, Inc Time 12) was “=” and the “bacterial growth in inhibition test” value (Lactobacillus fermentum; ATCC L. fermentum, 5 ppm, Inc Time 24) was “=”. For the same molecule, the “bacterial growth in inhibition test” value (Lactobacillus fermentum; ATCC L. fermentum, 5 ppm, Inc Time 36) was “=”, the “bacterial growth in inhibition test” value (Lactobacillus fermentum; ATCC L. fermentum, 5 ppm, Inc Time 48) was “=” and the “bacterial growth in inhibition test” value (Lactobacillus fermentum; Ind 1 L. fermentum, 0.1 ppm, Inc Time 12) was “=”. For the same molecule, the “bacterial growth in inhibition test” value (Lactobacillus fermentum; Ind 1 L. fermentum, 0.1 ppm, Inc Time 24) was “±”, the “bacterial growth in inhibition test” value (Lactobacillus fermentum; Ind 1 L. fermentum, 0.1 ppm, Inc Time 36) was “±” and the “bacterial growth in inhibition test” value (Lactobacillus fermentum; Ind 1 L. fermentum, 0.1 ppm, Inc Time 48) was “±”. The “bacterial growth in inhibition test” value (Lactobacillus fermentum; Ind 1 L. fermentum, 0.3 ppm, Inc Time 12) was “=”, the “bacterial growth in inhibition test” value (Lactobacillus fermentum; Ind 1 L. fermentum, 0.3 ppm, Inc Time 24) was “=” and the “bacterial growth in inhibition test” value (Lactobacillus fermentum; Ind 1 L. fermentum, 0.3 ppm, Inc Time 36) was “±”. The “bacterial growth in inhibition test” value (Lactobacillus fermentum; Ind 1 L. fermentum, 0.3 ppm, Inc Time 48) was “±”, the “bacterial growth in inhibition test” value (Lactobacillus fermentum; Ind 1 L. fermentum, 0.5 ppm, Inc Time 12) was “=” and the “bacterial growth in inhibition test” value (Lactobacillus fermentum; Ind 1 L. fermentum, 0.5 ppm, Inc Time 24) was “=”. The “bacterial growth in inhibition test” value (Lactobacillus fermentum; Ind 1 L. fermentum, 0.5 ppm, Inc Time 36) was “=”, the “bacterial growth in inhibition test” value (Lactobacillus fermentum; Ind 1 L. fermentum, 0.5 ppm, Inc Time 48) was “=” and the “bacterial growth in inhibition test” value (Lactobacillus fermentum; Ind 1 L. fermentum, 1.0 ppm, Inc Time 12) was “=”. The “bacterial growth in inhibition test” value (Lactobacillus fermentum; Ind 1 L. fermentum, 1.0 ppm, Inc Time 24) was “=”, the “bacterial growth in inhibition test” value (Lactobacillus fermentum; Ind 1 L. fermentum, 1.0 ppm, Inc Time 36) was “=” and the “bacterial growth in inhibition test” value (Lactobacillus fermentum; Ind 1 L. fermentum, 1.0 ppm, Inc Time 48) was “=”. For the same molecule, the “bacterial growth in inhibition test” value (Lactobacillus fermentum; Ind 1 L. fermentum, 5.0 ppm, Inc Time 12) was “=”, the “bacterial growth in inhibition test” value (Lactobacillus fermentum; Ind 1 L. fermentum, 5.0 ppm, Inc Time 24) was “=” and the “bacterial growth in inhibition test” value (Lactobacillus fermentum; Ind 1 L. fermentum, 5.0 ppm, Inc Time 36) was “=”. For the same molecule, the “bacterial growth in inhibition test” value (Lactobacillus fermentum; Ind 1 L. fermentum, 5.0 ppm, Inc Time 48) was “=”, the “bacterial growth in inhibition test” value (Lactobacillus brevis; Ind 1 L. brevis, 1 ppm, Inc Time 12) was “±” and the “bacterial growth in inhibition test” value (Lactobacillus brevis; Ind 1 L. brevis, 1 ppm, Inc Time 24) was “+”. For the same molecule, the “bacterial growth in inhibition test” value (Lactobacillus brevis; Ind 1 L. brevis, 1 ppm, Inc Time 36) was “+”, the “bacterial growth in inhibition test” value (Lactobacillus brevis; Ind 1 L. brevis, 1 ppm, Inc Time 48) was “+” and the “bacterial growth in inhibition test” value (Lactobacillus brevis; Ind 1 L. brevis, 2 ppm, Inc Time 12) was “±”. For the same molecule, the “bacterial growth in inhibition test” value (Lactobacillus brevis; Ind 1 L. brevis, 2 ppm, Inc Time 24) was “+”, the “bacterial growth in inhibition test” value (Lactobacillus brevis; Ind 1 L. brevis, 2 ppm, Inc Time 36) was “+” and the “bacterial growth in inhibition test” value (Lactobacillus brevis; Ind 1 L. brevis, 2 ppm, Inc Time 48) was “+”. The “bacterial growth in inhibition test” value (Lactobacillus brevis; Ind 1 L. brevis, 3 ppm, Inc Time 12) was “±”, the “bacterial growth in inhibition test” value (Lactobacillus brevis; Ind 1 L. brevis, 3 ppm, Inc Time 24) was “+” and the “bacterial growth in inhibition test” value (Lactobacillus brevis; Ind 1 L. brevis, 3 ppm, Inc Time 36) was “+”. For the same molecule, the “bacterial growth in inhibition test” value (Lactobacillus brevis; Ind 1 L. brevis, 3 ppm, Inc Time 48) was “+”, the “bacterial growth in inhibition test” value (Lactobacillus brevis; Ind 1 L. brevis, 4 ppm, Inc Time 12) was “±” and the “bacterial growth in inhibition test” value (Lactobacillus brevis; Ind 1 L. brevis, 4 ppm, Inc Time 24) was “+”. For the same molecule, the “bacterial growth in inhibition test” value (Lactobacillus brevis; Ind 1 L. brevis, 4 ppm, Inc Time 36) was “+”, the “bacterial growth in inhibition test” value (Lactobacillus brevis; Ind 1 L. brevis, 4 ppm, Inc Time 48) was “+” and the “bacterial growth in inhibition test” value (Lactobacillus brevis; Ind 1 L. brevis, 5 ppm, Inc Time 12) was “=”. The “bacterial growth in inhibition test” value (Lactobacillus brevis; Ind 1 L. brevis, 5 ppm, Inc Time 24) was “=”, the “bacterial growth in inhibition test” value (Lactobacillus brevis; Ind 1 L. brevis, 5 ppm, Inc Time 36) was “±” and the “bacterial growth in inhibition test” value (Lactobacillus brevis; Ind 1 L. brevis, 5 ppm, Inc Time 48) was “+”. The “bacterial growth in inhibition test” value (Lactobacillus brevis; Ind 43 L. brevis, 1 ppm, Inc Time 12) was “=”, the “bacterial growth in inhibition test” value (Lactobacillus brevis; Ind 43 L. brevis, 1 ppm, Inc Time 24) was “+” and the “bacterial growth in inhibition test” value (Lactobacillus brevis; Ind 43 L. brevis, 1 ppm, Inc Time 36) was “+”. The “bacterial growth in inhibition test” value (Lactobacillus brevis; Ind 43 L. brevis, 1 ppm, Inc Time 48) was “+”, the “bacterial growth in inhibition test” value (Lactobacillus brevis; Ind 43 L. brevis, 2 ppm, Inc Time 12) was “=” and the “bacterial growth in inhibition test” value (Lactobacillus brevis; Ind 43 L. brevis, 2 ppm, Inc Time 24) was “+”. For the same molecule, the “bacterial growth in inhibition test” value (Lactobacillus brevis; Ind 43 L. brevis, 2 ppm, Inc Time 36) was “+”, the “bacterial growth in inhibition test” value (Lactobacillus brevis; Ind 43 L. brevis, 2 ppm, Inc Time 48) was “+” and the “bacterial growth in inhibition test” value (Lactobacillus brevis; Ind 43 L. brevis, 3 ppm, Inc Time 12) was “=”. The “bacterial growth in inhibition test” value (Lactobacillus brevis; Ind 43 L. brevis, 3 ppm, Inc Time 24) was “+”, the “bacterial growth in inhibition test” value (Lactobacillus brevis; Ind 43 L. brevis, 3 ppm, Inc Time 36) was “+” and the “bacterial growth in inhibition test” value (Lactobacillus brevis; Ind 43 L. brevis, 3 ppm, Inc Time 48) was “+”. For the same molecule, the “bacterial growth in inhibition test” value (Lactobacillus brevis; Ind 43 L. brevis, 4 ppm, Inc Time 12) was “=”, the “bacterial growth in inhibition test” value (Lactobacillus brevis; Ind 43 L. brevis, 4 ppm, Inc Time 24) was “±” and the “bacterial growth in inhibition test” value (Lactobacillus brevis; Ind 43 L. brevis, 4 ppm, Inc Time 36) was “±”. The “bacterial growth in inhibition test” value (Lactobacillus brevis; Ind 43 L. brevis, 4 ppm, Inc Time 48) was “+”, the “bacterial growth in inhibition test” value (Lactobacillus brevis; Ind 43 L. brevis, 5 ppm, Inc Time 12) was “=” and the “bacterial growth in inhibition test” value (Lactobacillus brevis; Ind 43 L. brevis, 5 ppm, Inc Time 24) was “±”. The “bacterial growth in inhibition test” value (Lactobacillus brevis; Ind 43 L. brevis, 5 ppm, Inc Time 36) was “±” and the “bacterial growth in inhibition test” value (Lactobacillus brevis; Ind 43 L. brevis, 5 ppm, Inc Time 48) was “+”.
